Where two headings read alike, the source gives them in different places.
Assay: solubility of fluorescent in situants in POE oils, alcohols, AB oil and mineral oil
Details: for solubility in POE oil: two different POE oils
Protocol: We have measured the solubility of several fluorescent and daylight-visible in situants in various POE oils and prepared solutions comprised solely of the POE carrier fluid (i.e., no alcohol in the carrier fluid) and these in situants. An example composition is 30 wt. % N-phenyl-1-naphthylamine and 70 wt. % POE oil. […] For example, a composition was prepared with 30 wt. % N-phenyl-1-naphthylamine, 1 wt. % 7-diethylamino-4-methylcoumarin (coumarin 1) and 69 wt. % POE oil. […] The preferred final composition of the fluorescing or daylight visible in situant in the system oil will be below the solubility limits.

[1] = POE oil or alcohols, qualitative

Row | Compound | soluble in POE oil or alcohols | other results
1 | NC(=O)c1nc2ccc(O)cc2s1 [2-carbamoyl-6-hydroxybenzothiazole] | soluble | –
2 | Oc1ccc2nc(-c3nc4ccccc4s3)sc2c1 [2′-(2-benzothiazolyl)-6′-hydroxybenzothiazole] | soluble | –
3 | c1ccc(N=Nc2ccc(Nc3ccccc3)cc2)cc1 [4-(phenylazo)-diphenylamine] | soluble | –
4 | c1ccc(Nc2cccc3ccccc23)cc1 [N-phenyl-1-naphthylamine] | – | solubility in AB oil (AB oil): about 10 weight percent; solubility in alcohols: 20-30%; solubility in mineral oil (mineral oil): ~3 weight percent; solubility in POE oil: 20-30 % by wt.
5 | c1ccc(Nc2ccc3ccccc3c2)cc1 [N-phenyl-2-naphthylamine] | – | soluble in POE oil or alcohols [1]: soluble; solubility in alcohols: 1-6%; solubility in POE oil: about 5 % by wt.
6 | c1ccc2c(c1)Nc1ccccc1S2 [phenothiazine] | – | soluble in POE oil or alcohols [1]: soluble

More lines, main results first:

Row | soluble in POE oil or alcohols | Compound | other results
7 | soluble | O=C1c2cccc(O)c2C(=O)c2cccc(O)c21 [anthrarufin] | –
8 | soluble | c1ccc(Nc2ccccc2)cc1 [diphenylamine] | –
9 | soluble | O=C1c2ccccc2C(=O)c2c(O)c(O)cc(O)c21 [purpurin] | –
10 | soluble | O=C1c2ccc(O)c(O)c2C(=O)c2c(O)ccc(O)c21 [quinalizarin] | –
11 | soluble | Cc1ccc2nc(-c3ccc(N=NNc4ccc(-c5nc6ccc(C)c(S(=O)(=O)[O-])c6s5)cc4)cc3)sc2c1S(=O)(=O)[O-].[Na+].[Na+] [thiazole yellow G] | –
12 | soluble | primuline | –

From patent publication US20020007663A1, “Method of introducing an in situant into a vapor compression system, especially useful for leak detection, as well as an apparatus for leak detection and a composition useful for leak detection” (Mainstream Engineering Corporation, priority 1997, published 2002)
